{
  "source": "paper PMC5493200",
  "about": "(ACS infectious diseases, 2016)",
  "key": {"[1]": {"experiment": "Protein binding, mouse", "format": "in vitro ADME"}, "[2]": {"system": "M. tuberculosis Erdman", "experiment": "Mouse model of acute tuberculosis infection", "format": "in vivo", "settings": "200 mg/kg BID, 9 days, subcutaneous, vs control"}, "[3]": {"settings": "ref [18]; cited from earlier work"}, "[4]": {"experiment": "Protein binding, human", "format": "in vitro ADME"}, "[5]": {"experiment": "Microsomal stability, mouse", "format": "in vitro ADME", "settings": "mouse liver microsomes"}, "[6]": {"experiment": "Microsomal stability, human", "format": "in vitro ADME", "settings": "human liver microsomes"}, "[7]": {"system": "M. tuberculosis H37Rv", "experiment": "microbe, parasite or virus in culture", "format": "cell-based, Mycobacterium tuberculosis", "settings": "for MIC (H37Rv): Table 5; for H37Rv MIC: Tables 1-4 and text"}, "[8]": {"system": "M. bovis BCG", "format": "cell-based", "settings": "average of 2–3 replicates, standard deviation in parenthesis"}, "[9]": {"system": "HepG2 cells", "experiment": "Mammalian cytotoxicity", "format": "cell-based"}, "[10]": {"system": "M. tuberculosis H37Rv Rv1258c knockout (KO)", "experiment": "microbe, parasite or virus in culture", "format": "cell-based", "settings": "for Rv1258c KO MIC: Tables 1-4 and text, 7 days, 7H9 broth"}, "[11]": {"target": "Purified 70S M. smegmatis bacterial ribosomes (Mycolicibacterium smegmatis, UniProt A0QSG6)", "sequence (A0QSG6 whole entry)": "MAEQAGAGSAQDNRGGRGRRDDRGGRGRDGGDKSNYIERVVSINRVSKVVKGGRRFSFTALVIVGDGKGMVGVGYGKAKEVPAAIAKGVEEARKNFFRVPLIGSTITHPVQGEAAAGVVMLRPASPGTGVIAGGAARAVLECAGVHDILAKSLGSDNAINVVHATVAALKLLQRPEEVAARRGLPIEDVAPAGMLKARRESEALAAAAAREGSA", "experiment": "Ribosomal translation inhibition", "format": "biochemical", "settings": "inhibits luciferase activity by 50%"}, "[12]": {"settings": "human liver microsomes; starred compounds; ref [4]; cited from earlier work"}, "[13]": {"system": "Rv1258c efflux pump", "settings": "H37Rv MIC / Rv1258c KO MIC"}, "[14]": {"settings": "mouse liver microsomes; starred compounds; ref [4]; cited from earlier work"}},
  "note": "Where two headings read alike, the source gives them in different places.",
  "data": [
    {"molecule": "Br.Br.Br.CN[C@@H]1[C@H](O)[C@H](NC)[C@H]2O[C@]3(O)[C@H](O[C@@H]2[C@H]1O)O[C@H](C)C[C@H]3NC(=O)Cc1cc(Cl)c(C)cn1", "note": "[Compound 47, 3′-Dihydro-3′-deoxy-3′(R)-(4-chloro-5-methylpyridin-2-yl)acetylamino spectinomycin trihydrobromide]", "values": [
      {"measurement": "Protein binding mouse", "setting": "[1]", "value": 42.7, "unit": "%"},
      {"measurement": "Reduction of bacterial load in lungs", "setting": "[2]; first new trial (Figure 3B)", "value": "more than 2 logs"},
      {"measurement": "Phase II conjugative metabolism", "setting": "[3]", "value": "subject to some phase II conjugative metabolism"},
      {"measurement": "Protein binding human", "setting": "[4]", "value": 43.9, "unit": "%"},
      {"measurement": "Microsomal stability t1/2 mouse", "setting": "[5]", "value": ">50", "unit": "h"},
      {"measurement": "Microsomal stability t1/2 human", "setting": "[6]", "value": ">50", "unit": "h"},
      {"measurement": "MIC (H37Rv)", "setting": "[7]", "value": 0.8, "unit": "µg/mL"},
      {"measurement": "H37Rv MIC", "setting": "[7]", "value": 0.8, "unit": "µg/mL"},
      {"measurement": "Post Antibiotic Effect", "setting": "[8]", "value": "102 (15) h"},
      {"measurement": "Cytotoxicity (HepG2)", "setting": "[9]", "value": ">400", "unit": "µg/mL"},
      {"measurement": "Rv1258c KO MIC", "setting": "[10]", "value": 0.8, "unit": "µg/mL"},
      {"measurement": "Ribosome IC50", "setting": "[11]", "value": 0.23, "unit": "µg/mL"}
    ]},
    {"molecule": "Br.Br.Br.CN[C@@H]1[C@H](O)[C@H](NC)[C@H]2O[C@]3(O)[C@H](O[C@@H]2[C@H]1O)O[C@H](C)C[C@H]3NC(=O)Cc1cc(Cl)c(OC)cn1", "note": "[Compound 48, 3′-Dihydro-3′-deoxy-3′(R)-(4-chloro-5-methoxypyridin-2-yl)acetylamino spectinomycin trihydrobromide]", "values": [
      {"measurement": "Protein binding mouse", "setting": "[1]", "value": 72.9, "unit": "%"},
      {"measurement": "Reduction of bacterial load in lungs", "setting": "[2]; second new trial (Figure 3C)", "value": 1.6, "unit": "log"},
      {"measurement": "Phase II conjugative metabolism", "setting": "[3]", "value": "subject to metabolism"},
      {"measurement": "Protein binding human", "setting": "[4]", "value": 61.6, "unit": "%"},
      {"measurement": "Microsomal stability t1/2 mouse", "setting": "[5]", "value": 5.5, "unit": "h"},
      {"measurement": "Microsomal stability t1/2 human", "setting": "[6]", "value": 6.3, "unit": "h"},
      {"measurement": "MIC (H37Rv)", "setting": "[7]", "value": 3.1, "unit": "µg/mL"},
      {"measurement": "H37Rv MIC", "setting": "[7]", "value": 3.1, "unit": "µg/mL"},
      {"measurement": "Post Antibiotic Effect", "setting": "[8]", "value": "72 (10) h"},
      {"measurement": "Cytotoxicity (HepG2)", "setting": "[9]", "value": ">400", "unit": "µg/mL"},
      {"measurement": "Rv1258c KO MIC", "setting": "[10]", "value": 3.1, "unit": "µg/mL"},
      {"measurement": "Ribosome IC50", "setting": "[11]", "value": 0.42, "unit": "µg/mL"}
    ]},
    {"molecule": "CN[C@@H]1[C@H](O)[C@H](NC)[C@H]2O[C@@]3(O)C(=O)C[C@@H](C)O[C@H]3O[C@@H]2[C@H]1O", "note": "[SPC, Spectinomycin, reference compound]", "values": [
      {"measurement": "MIC", "setting": "[7]; Mycobacterium tuberculosis, H37RV, 168 h, read-out: H37Rv MIC", "value": 100, "unit": "µg/mL"},
      {"measurement": "Microsomal stability t1/2 human", "setting": "[12]", "value": 2.5, "unit": "h"},
      {"measurement": "Efflux Ratio", "setting": "[13]", "value": 16},
      {"measurement": "MIC", "setting": "[10]; Mycobacterium tuberculosis, H37RV, 168 h, read-out: Rv1258c KO MIC", "value": 6.3, "unit": "µg/mL"},
      {"measurement": "Microsomal stability t1/2 mouse", "setting": "[14]", "value": ">10", "unit": "h"}
    ]}
  ]
}
